Measurements published in patent US20060074129A1, “Method for obtaining ozonized oils and vegetable fats and use of said products for pharmaceutical and cosmetic purposes” (priority 2002, published 2006).

Legend:
Candida albicans = test: Clinical study in vulvovaginal candidiasis; format: in vivo; conditions: for healing: final vaginal exudate, six days after the last ovule; for time at which symptoms and signs disappeared in a higher percent: in vivo
Description: Ninety women, 17 to 51 years old, with diagnosis of vulvovaginal candidiasis were studied. Patients were allocated at random in three groups: 30 were treated with ovules containing 10% ozonized theobroma oil, 30 were treated with Nistatine and 30 with Clotrimazole. To all patients, a vaginal exudate was performed at the beginning and at the end of the treatment, six days after the application of the last ovule. Also, an interrogation and a physical test were performed to them. The clinical symptoms of those patients were pruritus, burning and leucorrhea with higher prevalence. […] Taking into account the final exudate, a healing of 97% was obtained for the patients treated with ozonized theobroma oil ovules, 80% for the group treated with Clotrimazole and 50% for the patients treated with Nistatine.

[1] = test system: moderate simple periodontitis; test: Random, controlled, single-blind phase III clinical trial in moderate simple periodontitis; format: in vivo, human
Description: In this study, we used ozonized sunflower oil in order to evaluate their effect on the treatment of moderate simple periodontitis and for preventing its recidivation. A random, controlled and single-blind phase III clinical trial was performed in 84 patients, older than 35 years, from both sexes. Ozonized sunflower oil was topically applied to 42 patients on the operated area and on the 7th, 14th and 21st days after operation on the adjacent periodontal tissues. The control group was formed by 42 patients that received the conventional treatment with chlorhexidine (aqueous solution 0.2%). An analytic index of hygiene, clinical and radiographical tests and microbiological controls was applied to the patients, at the beginning, on the 21st , 90th and 180th days and with intervals of 1 month until 9 months after operation. The effectiveness of the treatment after 180 days was considered as: good (satisfactory clinical and microbiological assessments) in 98% of the patients of the group treated with ozonized sunflower oil and in 78% of the control group; fairly good (some of the assessments were not satisfactory) for 2 and 17%, respectively, and in the category of bad (both assessments were not satisfactory) only 5% appears in the control group. Recidivation was more frequent in the control group (15%) than in the group treated with ozonized sunflower oil (5%). In general, the best clinical results (best evolution and healing during the study) and microbiological results were obtained in the group treated with ozonized sunflower oil, and also a lower percent of recidivation was found in that group.

blepharitis = test: Clinical study in blepharitis with acute bacterial infection; format: in vivo, human; conditions: topical on eyelid border, 7 days
Description: The sample was constituted by 40 patients suffering from blepharitis, with acute bacterial infection. Twenty patients were treated with topical ozonized sunflower oil, three times a day, by rubbing the border of the eyelid with an applicator soaked with ozonized sunflower oil, during 7 days. The 20 other patients were treated in the same way with gentamycin ointment (0.3%), 4 times a day for 7 days. Healing of 95 and 88% was obtained with ozonized sunflower oil and gentamycin, respectively, with significant differences between both groups.

[2] = test system: acute ulcer-necrotizing gingivitis; test: Random phase III clinical assay in acute ulcer-necrotizing gingivitis; format: in vivo, human; conditions: three times a day for 7 days
Description: A random phase III clinical assay was performed in a group of 48 patients suffering from acute ulcer-necrotizing gingivitis. From those patients, 24 formed the group with ozonized sunflower oil, by topical applications on the lesions, three times a day, for 7 days. The control group (24 patients) was treated with local applications of aqueous solution of sodium perborate, as rinsings, with similar periodicity to that of the group treated with ozonized sunflower oil. The tests were performed 3 or 7 days after the beginning of the treatments.

Clc1ccccc1C(c1ccccc1)(c1ccccc1)n1ccnc1 [Clotrimazole]
healing (Candida albicans): 80%
time at which symptoms and signs disappeared in a higher percent (Candida albicans): between the first and the fourth days of treatment

[H]/N=C(\N/C(=N/[H])NCCCCCCNC(=N)NC(=N)Nc1ccc(Cl)cc1)Nc1ccc(Cl)cc1 [chlorhexidine]
effectiveness of the treatment considered bad ([1]; after 180 days, both assessments not satisfactory): 5%
effectiveness of the treatment considered good ([1]; after 180 days, satisfactory clinical and microbiological assessments): 78%
effectiveness of the treatment considered fairly good ([1]; after 180 days, some of the assessments not satisfactory): 17%
recidivation ([1]; human, in vivo): 15%

Nistatine
healing (Candida albicans): 50%
time at which symptoms and signs disappeared in a higher percent (Candida albicans): between the ninth and twelfth days

gentamycin
healing (blepharitis): 88%

sodium perborate
patients healed [2]: 29.2%
